Measured values taken from US10894784B2, “Heteroarylbenzimidazole compounds” (BAYER PHARMA AKTIENGESELLSCHAFT, priority 2015, dated 2021).
Where two headings read alike, the source gives them in different places.

Target: TBK1 (Homo sapiens (Human), UniProt Q9UHD2)
Test: TBK1 low ATP kinase assay (in vitro assay 1)
Format: biochemical
[1] = in vitro assay 1, read-out: TBK1 low ATP kinase assay IC50
[2] = TBK1 low ATP kinase assay IC50, in vitro assay 1

TBK1, sequence (Q9UHD2 whole entry): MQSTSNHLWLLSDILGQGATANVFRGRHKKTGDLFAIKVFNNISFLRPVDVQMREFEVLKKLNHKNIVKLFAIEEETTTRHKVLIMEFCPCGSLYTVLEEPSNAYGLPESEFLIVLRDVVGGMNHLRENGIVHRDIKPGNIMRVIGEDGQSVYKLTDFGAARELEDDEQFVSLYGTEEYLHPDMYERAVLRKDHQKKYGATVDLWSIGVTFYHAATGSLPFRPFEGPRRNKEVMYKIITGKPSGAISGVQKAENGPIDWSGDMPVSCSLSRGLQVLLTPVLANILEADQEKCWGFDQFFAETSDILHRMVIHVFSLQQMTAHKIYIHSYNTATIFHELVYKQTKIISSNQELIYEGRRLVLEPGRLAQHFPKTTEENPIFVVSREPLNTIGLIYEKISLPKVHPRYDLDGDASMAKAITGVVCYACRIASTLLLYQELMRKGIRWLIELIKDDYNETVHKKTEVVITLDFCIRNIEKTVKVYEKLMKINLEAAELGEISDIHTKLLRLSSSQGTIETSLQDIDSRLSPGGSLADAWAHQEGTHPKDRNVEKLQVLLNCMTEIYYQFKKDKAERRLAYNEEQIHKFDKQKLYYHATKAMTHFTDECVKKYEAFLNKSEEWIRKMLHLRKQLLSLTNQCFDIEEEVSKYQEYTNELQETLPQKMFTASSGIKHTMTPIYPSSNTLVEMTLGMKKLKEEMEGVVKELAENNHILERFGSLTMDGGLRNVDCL

| IC50 [1] | IC50 [2] | Molecule |
| --- | --- | --- |
| 38.2 nM |  | O=C(C1CC1)N1CCN(Cc2ccnc(Nc3nc4ccc(-c5nc(C6CC6)no5)cc4[nH]3)c2)CC1 [Example 17.05, cyclopropyl{4-[(2-{[6-(3-cyclopropyl-1,2,4-oxadiazol-5-yl)-1H-benzimidazol-2-yl]amino}pyridin-4-yl)methyl]piperazin-1-yl}methanone] |
| 48 nM |  | COc1cncnc1-c1ccc2nc(Nc3cc(CN4CCN(C(=O)N5CCCC5)CC4)ccn3)[nH]c2c1 [Example 35.01.05, {4-[(2-{[6-(5-methoxypyrimidin-4-yl)-1H-benzimidazol-2-yl]amino}pyridin-4-yl)methyl]piperazin-1-yl}(pyrrolidin-1-yl)methanone] |
| 190 nM |  | O=C(CC(F)(F)F)N1CCN(Cc2ccnc(Nc3nc4ccc(-c5c(F)cncc5Cl)cc4[nH]3)c2)CC1 [Example 132.02, 1-{4-[(2-{[6-(3-chloro-5-fluoropyridin-4-yl)-1H-benzimidazol-2-yl]amino}pyridin-4-yl)methyl]piperazin-1-yl}-3,3,3-trifluoropropan-1-one] |
| 222 nM |  | CCOc1ncnc(-c2ccc3nc(Nc4cc(CN5CCN(C(=O)OC(C)(C)C)CC5)ccn4)[nH]c3c2)c1OC [Example 167.01, tert-butyl 4-[(2-{[6-(6-ethoxy-5-methoxypyrimidin-4-yl)-1H-benzimidazol-2-yl]amino}pyridin-4-yl)methyl]piperazine-1-carboxylate] |
| 20.4 nM |  | Cc1cc(CN2CCN(C(=O)CC(F)(F)F)CC2)cc(Nc2nc3ccc(-c4ccncn4)cc3[nH]2)n1 [Example 23.02.01, 3,3,3-trifluoro-1-{4-[(2-methyl-6-{[6-(pyrimidin-4-yl)-1H-benzimidazol-2-yl]amino}pyridin-4-yl)methyl]piperazin-1-yl}propan-1-one] |
|  | 17.2 nM | Cc1noc(-c2ccc3nc(Nc4cc(C(C)N5CCN(C(=O)CC(F)(F)F)CC5)ccn4)[nH]c3c2)n1 (single isomer, unassigned) [Example 16.06.02.B, 3,3,3-trifluoro-1-{4-[(1S or 1R)-1-(2-{[6-(3-methyl-1,2,4-oxadiazol-5-yl)-1H-benzimidazol-2-yl]amino}pyridin-4-yl)ethyl]piperazin-1-yl}propan-1-one] |
| 0.832 nM |  | CC(c1ccnc(Nc2nc3ccc(-c4cc(N5CC(C(F)(F)F)C5)ncn4)cc3[nH]2)c1)N1CCN(C(=O)C2(C(F)(F)F)CC2)CC1 (single isomer, unassigned) [Example 164.04, {4-[(1R or 1S)-1-{2-[(6-{6-[3-(trifluoromethyl)azetidin-1-yl]pyrimidin-4-yl}-1H-benzimidazol-2-yl)amino]pyridin-4-yl}ethyl]piperazin-1-yl}[1-(trifluoromethyl)cyclopropyl]methanone] |
| 7.83 nM |  | CC(c1ccnc(Nc2nc3ccc(-c4cn[nH]c4)cc3[nH]2)c1)N1CCN(C(=O)OC(C)(C)C)CC1 (single isomer, unassigned) [Example 57.01, tert-butyl 4-[(1R or 1S)-1-(2-{[6-(1H-pyrazol-4-yl)-1H-benzimidazol-2-yl]amino}pyridin-4-yl)ethyl]piperazine-1-carboxylate] |
| 23 nM |  | COc1c(C)ncnc1-c1ccc2nc(Nc3cc(CN4CCN(C(=O)C5CC5)CC4)ccn3)[nH]c2c1 [Example 61.01.02, cyclopropyl{4-[(2-{[6-(5-methoxy-6-methylpyrimidin-4-yl)-1H-benzimidazol-2-yl]amino}pyridin-4-yl)methyl]piperazin-1-yl}methanone] |
| 1590 nM |  | Cc1ncc(C)c(-c2ccc3nc(Nc4cc(CN5CCN(C(=O)CC(F)(F)F)CC5)ccn4)[nH]c3c2)n1 [Example 33.02, 1-{4-[(2-{[6-(2,5-dimethylpyrimidin-4-yl)-1H-benzimidazol-2-yl]amino}pyridin-4-yl)methyl]piperazin-1-yl}-3,3,3-trifluoropropan-1-one] |
| 6.62 nM |  | Cc1nccc(-c2ccc3nc(Nc4cc(C(C)N5CCN(C(=O)CC(F)(F)F)CC5)ccn4)[nH]c3c2)n1 (single isomer, unassigned) [Example 24.05.01.B, 3,3,3-trifluoro-1-{4-[(1S or 1R)-1-(2-{[6-(2-methylpyrimidin-4-yl)-1H-benzimidazol-2-yl]amino}pyridin-4-yl)ethyl]piperazin-1-yl}propan-1-one] |
| 2.7 nM |  | CC(c1ccnc(Nc2nc3ccc(-c4cc(N5CCCC5)ncn4)cc3[nH]2)c1)N1CCN(C(=O)C(C)(C)O)CC1 (single isomer, unassigned) [Example 117.07, 2-hydroxy-2-methyl-1-(4-{(1R or 1S)-1-[2-({6-[6-(pyrrolidin-1-yl)pyrimidin-4-yl]-1H-benzimidazol-2-yl}amino)pyridin-4-yl]ethyl}piperazin-1-yl)propan-1-one] |
| 73.9 nM |  | Cn1cc(-c2ccc3nc(Nc4cc(CN5CCN(C(=O)C6CCC6)CC5)ccn4)[nH]c3c2)cn1 [Example 37.04, cyclobutyl{4-[(2-{[6-(1-methyl-1H-pyrazol-4-yl)-1H-benzimidazol-2-yl]amino}pyridin-4-yl)methyl]piperazin-1-yl}methanone] |
| 1.6 nM |  | COc1c(-c2ccc3nc(Nc4cc(C(C)N5CCN(C(=O)CC(F)(F)F)CC5)ccn4)[nH]c3c2)ncnc1N1CC(F)(F)C1 (single isomer, unassigned) [Example 113.02, 1-(4-{(1R or 1S)-1-[2-({6-[6-(3,3-difluoroazetidin-1-yl)-5-methoxypyrimidin-4-yl]-1H-benzimidazol-2-yl}amino)pyridin-4-yl]ethyl}piperazin-1-yl)-3,3,3-trifluoropropan-1-one] |
| 60.9 nM |  | COc1cncnc1-c1ccc2nc(Nc3cc(CN4CCN(S(=O)(=O)C5CCCCC5)CC4)ccn3)[nH]c2c1 [Example 35.01.13, N-(4-{[4-(cyclohexylsulfonyl)piperazin-1-yl]methyl}pyridin-2-yl)-6-(5-methoxypyrimidin-4-yl)-1H-benzimidazol-2-amine] |
| 7.1 nM |  | 1-(4-{(1R or 1S)-1-[2-({6-[1-(cyclopentylmethyl)-1H-pyrazol-4-yl]-1H-benzimidazol-2-yl}amino)pyridin-4-yl]ethyl}piperazin-1-yl)-3,3,3-trifluoropropan-1-one [Example 71.02] |
|  | 2.15 nM | Cc1cc(-c2ccc3nc(Nc4cc(C(C)N5CCN(C(=O)CC(F)(F)F)CC5)ccn4)[nH]c3c2)ncn1 (single isomer, unassigned) [Example 30.03.01.B, 3,3,3-trifluoro-1-{4-[(1S or 1R)-1-(2-{[6-(6-methylpyrimidin-4-yl)-1H-benzimidazol-2-yl]amino}pyridin-4-yl)ethyl]piperazin-1-yl}propan-1-one] |
|  | 1.96 nM | CC(C)Oc1cncnc1-c1ccc2nc(Nc3cc(C(C)N4CCN(C(=O)CC(F)(F)F)CC4)ccn3)[nH]c2c1 (single isomer, unassigned) [Example 36.02, 3,3,3-trifluoro-1-(4-{(1R or 1S)-1-[2-({6-[5-(propan-2-yloxy)pyrimidin-4-yl]-1H-benzimidazol-2-yl}amino)pyridin-4-yl]ethyl}piperazin-1-yl)propan-1-one] |
| 45.9 nM |  | COCC1CCN(S(=O)(=O)N2CCN(Cc3ccnc(Nc4nc5ccc(-c6ncncc6OC)cc5[nH]4)c3)CC2)CC1 [Example 35.01.16, N-{4-[(4-{[4-(methoxymethyl)piperidin-1-yl]sulfonyl}piperazin-1-yl)methyl]pyridin-2-yl}-6-(5-methoxypyrimidin-4-yl)-1H-benzimidazol-2-amine] |
| 55 nM |  | CC(C)(C)OC(=O)N1CCN(Cc2ccnc(Nc3nc4ccc(-c5ccnc(C(F)F)c5)cc4[nH]3)c2)CC1 [Example 139.01, tert-butyl 4-{[2-({6-[2-(difluoromethyl)pyridin-4-yl]-1H-benzimidazol-2-yl}amino)pyridin-4-yl]methyl}piperazine-1-carboxylate] |
| 510 nM |  | Cc1noc(-c2ccc3nc(Nc4cc(CN5CCN(C(=O)N6CCCC6)CC5)ccn4)[nH]c3c2)n1 [Example 101.31, {4-[(2-{[6-(3-methyl-1,2,4-oxadiazol-5-yl)-1H-benzimidazol-2-yl]amino}pyridin-4-yl)methyl]piperazin-1-yl}(pyrrolidin-1-yl)methanone] |
| 397 nM |  | O=C(CC1CC1)N1CCN(Cc2ccnc(Nc3nc4ccc(-c5cncnc5)cc4[nH]3)c2)CC1 [Example 45.01.02, 2-cyclopropyl-1-{4-[(2-{[6-(pyrimidin-5-yl)-1H-benzimidazol-2-yl]amino}pyridin-4-yl)methyl]piperazin-1-yl}ethanone] |
| 2.47 nM |  | CC(c1ccnc(Nc2nc3ccc(-c4ccncn4)cc3[nH]2)c1)N1CCN(C(=O)CC(F)(F)F)CC1 (racemic) [Example 23.04.03, (rac)-3,3,3-trifluoro-1-{4-[1-(2-{[6-(pyrimidin-4-yl)-1H-benzimidazol-2-yl]amino}pyridin-4-yl)ethyl]piperazin-1-yl}propan-1-one] |
| 102 nM |  | C=CCC(=O)N1CCN(Cc2ccnc(Nc3nc4ccc(-c5nc(C6CC6)no5)cc4[nH]3)c2)CC1 [Example 17.04, 1-{4-[(2-{[6-(3-cyclopropyl-1,2,4-oxadiazol-5-yl)-1H-benzimidazol-2-yl]amino}pyridin-4-yl)methyl]piperazin-1-yl}but-3-en-1-one] |
| 770 nM |  | Cn1ncnc1-c1ccc2nc(Nc3cc(CN4CCN(C(=O)C5CC5)CC4)ccn3)[nH]c2c1 [Example 41.03, cyclopropyl{4-[(2-{[6-(1-methyl-1H-1,2,4-triazol-5-yl)-1H-benzimidazol-2-yl]amino}pyridin-4-yl)methyl]piperazin-1-yl}methanone] |
| 84.7 nM |  | Cc1noc(-c2ccc3nc(Nc4cc(CN5CCN(C(=O)C6CCC6)C[C@H]5C)ccn4)[nH]c3c2)n1 [Example 16.03.05, cyclobutyl{(3R)-3-methyl-4-[(2-{[6-(3-methyl-1,2,4-oxadiazol-5-yl)-1H-benzimidazol-2-yl]amino}pyridin-4-yl)methyl]piperazin-1-yl}methanone] |

| Molecule | IC50 [1] | IC50 [2] |
| --- | --- | --- |
| Cc1cc(-c2ccc3nc(Nc4cc(CN5CCN(C(=O)CC(F)(F)F)CC5)ccn4)[nH]c3c2)ccn1 [Example 01.03, 3,3,3-trifluoro-1-{4-[(2-{[6-(2-methylpyridin-4-yl)-1H-benzimidazol-2-yl]amino}pyridin-4-yl)methyl]piperazin-1-yl}propan-1-one] | 53.5 nM |  |
